According to US20040248775A1, “Methods for screening inhibitors of apoptosis” (Wyeth, priority 2003, published 2004):

Biological target: T1, NBS mutant NALP1 (Homo sapiens, UniProt Q9C000, G339E/K340A)
T1 construct: to generate full-length NALP1 in frame with EGFP; expressed in transfected cells; host or cells: HeLa cells, transient transfection; S-100 extract used
T1 sequence (Q9C000 1-1473 G339E/K340A): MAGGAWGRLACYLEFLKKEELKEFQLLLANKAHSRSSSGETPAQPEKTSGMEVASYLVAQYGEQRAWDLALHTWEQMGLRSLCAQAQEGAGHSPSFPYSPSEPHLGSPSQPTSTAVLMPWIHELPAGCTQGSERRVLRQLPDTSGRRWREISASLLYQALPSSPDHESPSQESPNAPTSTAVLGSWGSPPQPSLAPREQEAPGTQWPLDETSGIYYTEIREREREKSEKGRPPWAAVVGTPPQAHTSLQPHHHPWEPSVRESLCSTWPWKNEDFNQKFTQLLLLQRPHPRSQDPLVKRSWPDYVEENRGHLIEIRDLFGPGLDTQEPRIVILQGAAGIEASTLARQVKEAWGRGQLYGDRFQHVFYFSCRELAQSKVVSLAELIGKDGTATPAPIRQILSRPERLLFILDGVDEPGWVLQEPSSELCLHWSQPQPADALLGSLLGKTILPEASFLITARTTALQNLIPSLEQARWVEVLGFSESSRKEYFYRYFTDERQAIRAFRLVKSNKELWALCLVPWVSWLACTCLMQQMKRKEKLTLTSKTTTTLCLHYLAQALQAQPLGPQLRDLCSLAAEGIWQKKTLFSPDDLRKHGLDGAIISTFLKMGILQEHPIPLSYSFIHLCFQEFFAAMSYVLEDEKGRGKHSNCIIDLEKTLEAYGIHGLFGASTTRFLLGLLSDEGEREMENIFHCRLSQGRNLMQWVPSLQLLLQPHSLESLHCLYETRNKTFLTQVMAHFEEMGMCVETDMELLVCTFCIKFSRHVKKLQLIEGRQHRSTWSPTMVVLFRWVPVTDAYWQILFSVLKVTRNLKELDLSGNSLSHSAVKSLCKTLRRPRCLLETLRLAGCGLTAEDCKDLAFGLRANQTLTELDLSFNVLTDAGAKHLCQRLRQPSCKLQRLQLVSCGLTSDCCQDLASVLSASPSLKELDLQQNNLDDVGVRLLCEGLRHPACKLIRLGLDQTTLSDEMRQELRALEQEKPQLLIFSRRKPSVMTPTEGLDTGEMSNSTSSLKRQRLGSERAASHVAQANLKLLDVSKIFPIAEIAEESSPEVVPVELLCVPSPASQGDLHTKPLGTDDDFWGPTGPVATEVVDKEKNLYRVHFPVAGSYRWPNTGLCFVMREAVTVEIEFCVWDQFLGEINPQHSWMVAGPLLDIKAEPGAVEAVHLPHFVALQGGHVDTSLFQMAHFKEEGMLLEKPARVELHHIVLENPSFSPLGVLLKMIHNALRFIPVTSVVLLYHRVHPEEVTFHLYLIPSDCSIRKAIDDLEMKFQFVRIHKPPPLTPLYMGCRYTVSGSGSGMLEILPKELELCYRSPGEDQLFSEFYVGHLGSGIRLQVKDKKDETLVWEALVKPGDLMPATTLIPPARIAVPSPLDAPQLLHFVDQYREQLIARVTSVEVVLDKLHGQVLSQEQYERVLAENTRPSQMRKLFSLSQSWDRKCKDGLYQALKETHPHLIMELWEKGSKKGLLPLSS
Assay: Fluorimetric DEVDase (caspase-3) assay in HeLa cell extracts expressing NBS mutant NALP1-EGFP
Format: biochemical
Settings: 2 mM dATP, 2 mM MgCl2, 1 hour, Ac-DEVD-AMC substrate
Method: Cell extract preparation and fluorimetric assay of caspase activity. Preparation of cell extracts, dATP incubation and caspase-3 activities assays were performed as described by Liu et al. (1996). Briefly, HeLa cells were grown in DMEM, 10% FBS. Cells were plated in T175 flasks to 60% confluence. Control vector pEGFP or wild-type or NBS mutant NALP1-EGFP expression plasmids were transfected into HeLa cells using Lipofectamine Plus. Cells were collected in homogenization buffer (20 mM HEPES pH 7.5, 10 mM KCl, 1 mM sodium EDTA, […], 1 mM sodium EGTA, 0.1% CHAPS, 1 mM DTT, 0.1 mM PMSF and protease inhibitor cocktail tablets (Roche)), 24 hours after transfection. Cells were chilled on ice for 15 minutes and homogenized by douncing 30 times in a glass douncer. Samples were centrifuged at 1000×g for 10 minutes at 4° C. […] After 2 hours incubation, liberation of AMC (7-amino-4-methylcoumarin) from the substrate was monitored using excitation/emission wavelength pairs (λex/λem) of 380/460 nm using a SpectraFluor Plus instrument (Tecan). Triplicate samples were evaluated with or without specific inhibitors. […] Normalized data from multiple experiments were expressed as means±standard deviation. For each experiment, the expression of EGFP-tagged NALP1 proteins was analyzed by anti-GFP immunoblot and quantified by densitometry.

- DEVDase activity, extracts with NBS mutant NALP1: did not respond
SMILES: Nc1ncnc2c1ncn2[C@H]1C[C@H](O)[C@@H](COP(=O)(O)OP(=O)(O)OP(=O)(O)O)O1 [dATP]
